Assay: xn = mol fraction of the nth substance listed
Conditions: 100 kPa, x2 = 0.25

O=S(=O)([N-]S(=O)(=O)C(F)(F)F)C(F)(F)F.[Rb+] + O=S(=O)([N-]S(=O)(=O)C(F)(F)F)C(F)(F)F.[Li+]
Conditions | electrical conductivity [S/m] | viscosity [mPa·s]
442.2 K | 0.822 | –
442.5 K | – | 63.2
452.2 K | 1.05 | –
462.7 K | 1.28 | –
473.7 K | 1.52 | –
473.9 K | – | 28.1
482.9 K | 1.86 | –
492.3 K | 2.15 | –
492.6 K | – | 17.9
502.4 K | 2.48 | –
502.5 K | – | 14.3
512.8 K | – | 11.8
523.1 K | 3.2 | –
543.3 K | 4.03 | –
543.5 K | – | 7.21
551.9 K | 4.33 | –
552.5 K | – | 6.61
561.2 K | 4.79 | –
561.8 K | – | 5.8
571.1 K | 5.08 | –
